# Literature values in US20070106232A1, “METHOD AND APPARATUS FOR EXTENDING FEEDING TUBE LONGEVITY” (priority 2003, published 2007).
# Numbered stars: 1 amine (or outer) side, 2 acyl side, 3 side chain; on linkers, the order of the positions; unused ones are H or OH. Bridge positions count the residues as written; N and C are the ends. Square brackets hold non-standard residues; d marks the D form. Peptide text beside a SMILES is read from it. * marks the point of attachment. hTyr(3S-OH,4S-OH,3'-OSO3H) = N[C@H](C(=O)O)[C@H](O)[C@@H](O)c1ccc(O)c(OS(=O)(=O)O)c1; Orn(4R-OH,5R-OH) = O=C([C@H](C[C@@H](O)[C@@H](O)N[*:3])N[*:1])[*:2]; Pro(3S-OH,4S-Me) = C[C@H]1CN[C@H](C(=O)O)[C@H]1O; X1 = CCCCCOc1ccc(-c2cc(-c3ccc(C(=O)*)cc3)no2)cc1; Gln(3R-OH) = NC(=O)C[C@@H](O)[C@H](N)C(=O)O; Hyp = O=C(O)[C@@H]1C[C@@H](O)CN1
# Assays:
# [1] = tested on: Candida albicans and Candida parapsilosis biofilms
# [2] = tested on: feeding tube colonized with Candida; conditions: nystatin suspension 500,000 units/5 mL in the off cycle; amphotericin B 1 mg/10 mL for one week; tube lumen filled
# [3] = tested on: yeast crust on inner surface of the tube; conditions: segments incubated in vitro overnight, endoscopic brush next day
# [4] = tested on: Candida albicans biofilms; conditions: preformed Candida albicans biofilms; physiological concentrations; time-kill
# [5] = tested on: Candida albicans biofilms
# Candida spp. = conditions: including azole-resistant (Candida krusei), less susceptible (C. dubliniensis, C. glabrata) or amphotericin B resistant isolates
# [6] = tested on: fungal colonization of feeding tubes; conditions: pre-procedural preparation of the oropharynx, 1%
compound,measurement,setting,value
CN(C/C=C/C#CC(C)(C)C)Cc1cccc2ccccc12 [terbenafine],activity against Candida biofilms,[1],resistant
C[C@@H](c1ncncc1F)[C@](O)(Cn1cncn1)c1ccc(F)cc1F [voriconazole],activity against Candida biofilms,[1],resistant
C[C@@H]1[C@H](O)[C@@H](C)/C=C/C=C/CC/C=C/C=C/C=C/C=C/C(O[C@H]2O[C@H](C)[C@@H](O)[C@H](N)[C@@H]2O)CC2O[C@](O)(CC(O)C(O)CCC(O)CC(O)CC(O)CC(=O)O[C@H]1C)CC(O)C2C(=O)O (some centres unmarked) [nystatin],activity against Candida biofilms,[1],resistant
same,clearing of a feeding tube colonized with Candida,[2],unsuccessful
same,clearing the yeast crust from the inner surface of the tube,[3],unsuccessful
C[C@@H](c1nc(-c2ccc(C#N)cc2)cs1)[C@](O)(Cn1cncn1)c1ccc(F)cc1F [ravuconazole],activity against Candida biofilms,[1],resistant
C[C@@H]1[C@H](O)[C@@H](C)/C=C/C=C/C=C/C=C/C=C/C=C/C=C/[C@H](O[C@@H]2O[C@H](C)[C@@H](O)[C@H](N)[C@@H]2O)C[C@@H]2O[C@](O)(C[C@@H](O)C[C@@H](O)[C@H](O)CC[C@@H](O)C[C@@H](O)CC(=O)O[C@H]1C)C[C@H](O)[C@H]2C(=O)O [amphotericin B],activity against Candida biofilms,[1],resistant
same,clearing of a feeding tube colonized with Candida,[2],unsuccessful
same,clearing the yeast crust from the inner surface of the tube,[3],unsuccessful
CC[C@H](C)C[C@H](C)CCCCCCCCC(=O)N[C@H]1C[C@@H](O)[C@@H](NCCN)NC(=O)[C@@H]2[C@@H](O)CCN2C(=O)[C@H]([C@H](O)CCN)NC(=O)[C@H]([C@H](O)[C@@H](O)c2ccc(O)cc2)NC(=O)[C@@H]2C[C@@H](O)CN2C(=O)[C@H]([C@@H](C)O)NC1=O [caspofungin],killing,[4],≥ 99%
same,effect of coating of biomaterials on subsequent biofilm development by Candida albicans,[5]; biomaterials coated with drug,inhibitory effect
same,effects on preformed Candida albicans biofilms,[5]; scanning electron microscopy and confocal scanning laser microscopy,altered the cellular morphology and the metabolic status
same,minimum inhibitory concentration at which 50% of the sessile cells were inhibited,[5]; sessile Candida albicans cells,well within the drug's therapeutic range
same,in vitro activity against sessile Candida albicans cells within biofilms,[5]; sessile cells within biofilms,potent in vitro activity
same,activity against Candida biofilms,[1],showed activity
same,activity against Candida spp.,Candida spp.,active
"CCCCCOc1ccc(-c2cc(-c3ccc(C(=O)N[C@H]4C[C@@H](O)[C@@H](O)NC(=O)[C@@H]5[C@@H](O)[C@@H](C)CN5C(=O)[C@H]([C@H](O)CC(N)=O)NC(=O)[C@H]([C@H](O)[C@@H](O)c5ccc(O)c(OS(=O)(=O)O)c5)NC(=O)[C@@H]5C[C@@H](O)CN5C(=O)[C@H]([C@@H](C)O)NC4=O)cc3)no2)cc1 [micofungin] (X1-[Orn(4R-OH,5R-OH)]T[Hyp][hTyr(3S-OH,4S-OH,3'-OSO3H)][Gln(3R-OH)][Pro(3S-OH,4S-Me)]; lactam 1-C)",activity against Candida biofilms,[1],showed activity
[H]/N=C(\N/C(=N/[H])NCCCCCCNC(=N)NC(=N)Nc1ccc(Cl)cc1)Nc1ccc(Cl)cc1 [chlorhexidine],activity against Candida biofilms,[1],resistant
OC(Cn1cncn1)(Cn1cncn1)c1ccc(F)cc1F [fluconazole],activity against Candida biofilms,[1],resistant
neomycin,prophylaxis of fungal colonization of feeding tubes,[6],failed
